Source: paper PMC6436327, “Inhibition of Cytochrome P450 Activities by Sophora flavescens Extract and Its Prenylated Flavonoids in Human Liver Microsomes” (Evidence-based Complementary and Alternative Medicine : eCAM, 2019)
Read-outs that look alike come from different tables or passages of the source.

Assays:
Type in all cases: biochemical
CYP1A2 = biological target: T1, CYP1A2 (Homo sapiens, UniProt P05177); assay: phenacetin to acetaminophen, LC-MS/MS; conditions: microsomes
T1 construct: native enzyme in pooled human liver microsomes, phenacetin O-deethylation probe
T1 sequence (P05177 2-516): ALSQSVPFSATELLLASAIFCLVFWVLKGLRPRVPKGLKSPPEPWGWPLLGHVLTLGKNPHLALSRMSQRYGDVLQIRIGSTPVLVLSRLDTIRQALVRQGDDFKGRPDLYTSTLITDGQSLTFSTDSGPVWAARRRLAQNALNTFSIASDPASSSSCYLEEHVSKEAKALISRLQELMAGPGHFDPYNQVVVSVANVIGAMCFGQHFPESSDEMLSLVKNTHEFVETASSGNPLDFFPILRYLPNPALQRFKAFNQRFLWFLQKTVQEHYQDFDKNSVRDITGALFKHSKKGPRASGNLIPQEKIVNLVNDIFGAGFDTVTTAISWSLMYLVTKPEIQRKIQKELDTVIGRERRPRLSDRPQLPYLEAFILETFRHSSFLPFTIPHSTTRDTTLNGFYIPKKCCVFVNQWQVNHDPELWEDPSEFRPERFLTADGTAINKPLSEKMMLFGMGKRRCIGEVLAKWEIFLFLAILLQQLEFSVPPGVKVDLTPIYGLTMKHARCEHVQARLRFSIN
From the text: phenacetin to acetaminophen, LC-MS/MS on CYP1A2

CYP2C19 = biological target: T2, CYP2C19 (Homo sapiens, UniProt P33261); assay: S-mephenytoin 4-hydroxylation, LC-MS/MS; conditions: microsomes, read-out: IC50 value / Kushenol A
T2 construct: native enzyme in pooled human liver microsomes, S-mephenytoin 4-hydroxylation probe (methods text misprints CYP2C18)
From the text: S-mephenytoin 4-hydroxylation, LC-MS/MS on CYP2C19

CYP2C8 = biological target: T3, CYP2C8 (Homo sapiens, UniProt P10632); assay: rosiglitazone hydroxylation, LC-MS/MS; conditions: microsomes
T3 construct: methods text says paclitaxel
T3 sequence (P10632 1-490): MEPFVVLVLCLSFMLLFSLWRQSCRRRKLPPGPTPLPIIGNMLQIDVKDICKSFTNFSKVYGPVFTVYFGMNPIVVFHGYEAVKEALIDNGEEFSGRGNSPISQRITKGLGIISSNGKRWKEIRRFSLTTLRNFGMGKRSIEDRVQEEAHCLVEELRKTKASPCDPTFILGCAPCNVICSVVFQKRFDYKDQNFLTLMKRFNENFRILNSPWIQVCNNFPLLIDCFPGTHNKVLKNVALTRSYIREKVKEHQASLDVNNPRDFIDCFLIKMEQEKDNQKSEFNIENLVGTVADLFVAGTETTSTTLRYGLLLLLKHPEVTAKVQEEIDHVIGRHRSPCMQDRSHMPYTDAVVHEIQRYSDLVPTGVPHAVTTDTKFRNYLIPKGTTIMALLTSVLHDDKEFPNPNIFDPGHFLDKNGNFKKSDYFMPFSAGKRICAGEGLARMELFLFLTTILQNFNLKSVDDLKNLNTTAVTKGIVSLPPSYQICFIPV
From the text: rosiglitazone hydroxylation, LC-MS/MS on CYP2C8

CYP2D6 = biological target: T4, CYP2D6 (Homo sapiens, UniProt P10635); assay: dextromethorphan to dextrorphan, LC-MS/MS; conditions: microsomes, read-out: IC50 value / Kushenol A
T4 construct: native enzyme in pooled human liver microsomes, dextromethorphan O-demethylation probe
From the text: dextromethorphan to dextrorphan, LC-MS/MS on CYP2D6

CYP2B6 = biological target: T5, CYP2B6 (Homo sapiens, UniProt P20813); assay: bupropion 6-hydroxylation, LC-MS/MS; conditions: microsomes
T5 construct: native enzyme in pooled human liver microsomes, bupropion 6-hydroxylation probe
T5 sequence (P20813 1-491): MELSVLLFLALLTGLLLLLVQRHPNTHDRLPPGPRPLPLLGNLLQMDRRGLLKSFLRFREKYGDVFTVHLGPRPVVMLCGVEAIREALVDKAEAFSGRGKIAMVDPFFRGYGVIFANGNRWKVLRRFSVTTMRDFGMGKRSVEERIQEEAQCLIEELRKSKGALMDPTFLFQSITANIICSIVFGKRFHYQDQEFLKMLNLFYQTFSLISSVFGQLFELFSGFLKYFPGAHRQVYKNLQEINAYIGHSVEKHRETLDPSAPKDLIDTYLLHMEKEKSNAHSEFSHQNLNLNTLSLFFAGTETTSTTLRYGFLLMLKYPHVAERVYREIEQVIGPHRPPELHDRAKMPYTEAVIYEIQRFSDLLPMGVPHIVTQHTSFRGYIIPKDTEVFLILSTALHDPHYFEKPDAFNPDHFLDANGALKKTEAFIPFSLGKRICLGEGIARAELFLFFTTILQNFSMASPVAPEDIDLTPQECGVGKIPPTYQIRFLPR
From the text: bupropion 6-hydroxylation, LC-MS/MS on CYP2B6

CYP3A4 [1] = biological target: T6, CYP3A4 (Homo sapiens, UniProt P08684); assay: midazolam […]'-hydroxylation, LC-MS/MS; parameters: native enzyme in pooled human liver microsomes, midazolam 1'-hydroxylation probe (CYP3A5 may contribute); conditions: microsomes, read-out: IC50 value / Kushenol A
CYP2A6 = biological target: T7, CYP2A6 (Homo sapiens, UniProt P11509); assay: coumarin 7-hydroxylation, LC-MS/MS; conditions: human liver microsomes; no preincubation; NADPH-generating system, pH 7.4, 37°C; read-out: IC50 value / Kushenol A
T7 construct: native enzyme in pooled human liver microsomes, coumarin 7-hydroxylation probe
T7 sequence (P11509 1-494): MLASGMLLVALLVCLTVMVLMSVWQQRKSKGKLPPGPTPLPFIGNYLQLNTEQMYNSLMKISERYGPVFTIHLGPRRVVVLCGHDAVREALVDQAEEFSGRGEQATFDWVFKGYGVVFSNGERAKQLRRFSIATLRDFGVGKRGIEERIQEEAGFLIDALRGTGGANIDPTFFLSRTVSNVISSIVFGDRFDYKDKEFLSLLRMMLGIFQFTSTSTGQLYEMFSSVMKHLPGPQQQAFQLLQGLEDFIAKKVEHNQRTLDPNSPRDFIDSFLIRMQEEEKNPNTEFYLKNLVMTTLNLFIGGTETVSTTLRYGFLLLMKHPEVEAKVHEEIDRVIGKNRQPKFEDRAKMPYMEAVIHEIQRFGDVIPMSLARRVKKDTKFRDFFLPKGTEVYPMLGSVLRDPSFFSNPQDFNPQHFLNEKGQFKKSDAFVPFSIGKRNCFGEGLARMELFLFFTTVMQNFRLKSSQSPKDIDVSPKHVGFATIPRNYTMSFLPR
From the text: coumarin 7-hydroxylation, LC-MS/MS on CYP2A6

CYP2C9 = biological target: T8, CYP2C9 (Homo sapiens, UniProt P11712); assay: diclofenac hydroxylation, LC-MS/MS; conditions: microsomes
T8 construct: methods text says tolbutamide
From the text: diclofenac hydroxylation, LC-MS/MS on CYP2C9

CYP3A4 [2] = biological target: T6, CYP3A4; assay: time-dependent inactivation, midazolam […]'-hydroxylation, LC-MS/MS; parameters: recombinant, baculovirus-insect cell expressed, commercial (BD Gentest)
CYP3A4 [3] = biological target: T6, CYP3A4; assay: as above; parameters: native enzyme in pooled human liver microsomes, midazolam 1'-hydroxylation probe (CYP3A5 may contribute); conditions: microsomes
[4] = read-out: IC50 value / Kushenol A
[5] = read-out: IC50 value / Kushenol C
[6] = read-out: IC50 value / Kushenol I
[7] = read-out: IC50 value / Leachianone A
[8] = read-out: IC50 value / Sophoraflavone G

T2 sequence (P33261 whole entry): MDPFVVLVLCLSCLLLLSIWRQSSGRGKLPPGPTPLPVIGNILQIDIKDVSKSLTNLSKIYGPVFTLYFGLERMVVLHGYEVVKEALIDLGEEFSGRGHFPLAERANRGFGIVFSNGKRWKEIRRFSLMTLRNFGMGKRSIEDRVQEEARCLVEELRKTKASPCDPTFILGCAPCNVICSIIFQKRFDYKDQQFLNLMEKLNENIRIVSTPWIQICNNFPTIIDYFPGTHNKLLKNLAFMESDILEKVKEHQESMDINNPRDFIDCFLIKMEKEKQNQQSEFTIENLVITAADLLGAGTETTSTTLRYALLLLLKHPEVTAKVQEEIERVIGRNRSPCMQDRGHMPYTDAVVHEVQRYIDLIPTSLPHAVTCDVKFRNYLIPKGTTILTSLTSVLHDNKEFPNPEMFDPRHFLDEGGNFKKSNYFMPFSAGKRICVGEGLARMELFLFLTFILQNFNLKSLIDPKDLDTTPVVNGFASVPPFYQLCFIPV
T8 sequence (P11712 whole entry): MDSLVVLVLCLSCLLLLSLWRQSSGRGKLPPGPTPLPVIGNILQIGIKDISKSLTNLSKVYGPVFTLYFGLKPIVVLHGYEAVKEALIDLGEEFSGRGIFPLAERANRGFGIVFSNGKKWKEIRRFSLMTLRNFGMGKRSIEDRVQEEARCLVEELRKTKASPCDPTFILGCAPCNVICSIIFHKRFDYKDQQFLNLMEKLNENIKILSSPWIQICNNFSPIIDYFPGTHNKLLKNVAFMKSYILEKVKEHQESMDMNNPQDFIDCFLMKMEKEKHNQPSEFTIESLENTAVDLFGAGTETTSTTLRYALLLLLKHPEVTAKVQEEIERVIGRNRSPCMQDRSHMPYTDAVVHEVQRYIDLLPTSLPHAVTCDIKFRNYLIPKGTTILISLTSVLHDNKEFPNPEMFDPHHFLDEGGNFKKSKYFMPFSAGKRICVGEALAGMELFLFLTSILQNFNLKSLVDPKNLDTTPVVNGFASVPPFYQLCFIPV
T6 sequence (P08684 2-503): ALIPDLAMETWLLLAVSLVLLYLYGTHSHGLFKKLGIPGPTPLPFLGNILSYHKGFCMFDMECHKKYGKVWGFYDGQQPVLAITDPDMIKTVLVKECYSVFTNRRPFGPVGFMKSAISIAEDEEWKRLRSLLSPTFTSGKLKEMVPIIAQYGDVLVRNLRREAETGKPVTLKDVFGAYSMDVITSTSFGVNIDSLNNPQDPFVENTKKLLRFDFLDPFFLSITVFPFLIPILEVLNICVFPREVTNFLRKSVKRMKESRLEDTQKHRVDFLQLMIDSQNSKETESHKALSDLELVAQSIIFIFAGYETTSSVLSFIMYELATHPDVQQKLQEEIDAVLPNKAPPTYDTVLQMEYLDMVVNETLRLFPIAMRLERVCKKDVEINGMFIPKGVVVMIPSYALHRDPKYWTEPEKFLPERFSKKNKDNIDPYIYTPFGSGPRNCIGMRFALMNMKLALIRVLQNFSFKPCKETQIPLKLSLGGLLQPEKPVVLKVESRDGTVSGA
T4 sequence (P10635 whole entry): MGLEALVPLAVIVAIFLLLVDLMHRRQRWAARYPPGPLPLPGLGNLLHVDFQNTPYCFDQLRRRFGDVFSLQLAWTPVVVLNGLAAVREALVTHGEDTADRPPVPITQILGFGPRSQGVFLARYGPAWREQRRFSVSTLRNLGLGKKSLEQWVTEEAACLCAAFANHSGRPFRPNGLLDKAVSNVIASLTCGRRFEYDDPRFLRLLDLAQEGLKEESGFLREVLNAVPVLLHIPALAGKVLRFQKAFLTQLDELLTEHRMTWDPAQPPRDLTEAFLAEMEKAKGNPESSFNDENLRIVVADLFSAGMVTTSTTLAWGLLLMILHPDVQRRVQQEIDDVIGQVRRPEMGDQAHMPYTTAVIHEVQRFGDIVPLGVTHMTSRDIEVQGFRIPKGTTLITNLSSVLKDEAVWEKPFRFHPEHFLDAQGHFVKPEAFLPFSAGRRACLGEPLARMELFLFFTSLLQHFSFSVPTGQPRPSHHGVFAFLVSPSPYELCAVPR

C=C(C)[C@H](CC=C(C)C)Cc1c(O)cc(O)c2c1O[C@H](c1ccccc1O)CC2=O [Kushenol A]
IC50 (CYP1A2; [4]): > 50 µM
IC50 (CYP2C19): > 50 µM
IC50 (CYP2C8; [4]): > 50 µM
IC50 (CYP2D6): > 50 µM
IC50 (CYP2B6; [4]): > 50 µM
IC50 (CYP3A4 [1]): > 50 µM
IC50 (CYP2A6): > 50 µM
IC50 (CYP2C9; [4]): > 50 µM

C=C(C)[C@H](CC=C(C)C)Cc1c(O)cc(O)c2c(=O)c(O)c(-c3ccc(O)cc3O)oc12 [Kushenol C]
IC50 (CYP1A2; [5]): 5 µM
IC50 (CYP2C19): > 50 µM
IC50 (CYP2C8; [4]): > 50 µM
IC50 (CYP2D6): > 50 µM
IC50 (CYP2B6; [4]): > 50 µM
IC50 (CYP3A4 [1]): > 50 µM
IC50 (CYP2C9; [5]): 9.3 µM

C=C(C)[C@H](CC=C(C)C)Cc1c(O)cc(OC)c2c1O[C@H](c1ccc(O)cc1O)[C@@H](O)C2=O [Kushenol I]
IC50 (CYP1A2; [4]): > 50 µM
IC50 (CYP2C19): > 50 µM
IC50 (CYP2C8; [6]): 0.67 µM
IC50 (CYP2D6): > 50 µM
KI (inactivation) (CYP3A4 [2]): 0.88 µM
KI (inactivation) (CYP3A4 [3]): 0.24 µM
IC50 (CYP2B6; [4]): > 50 µM
IC50 (CYP3A4 [1]): > 50 µM
IC50 (CYP2C9; [6]): 7.35 µM

C=C(C)[C@H](CC=C(C)C)Cc1c(O)c(CC=C(C)C)c(O)c2c1O[C@H](c1ccc(O)cc1O)[C@@H](O)C2=O [Kushenol M]
IC50 (CYP1A2; [4]): > 50 µM
IC50 (CYP2C19): > 50 µM
IC50 (CYP2C8; [4]): > 50 µM
IC50 (CYP2D6): > 50 µM
IC50 (CYP2B6; [4]): > 50 µM
IC50 (CYP3A4 [1]): > 50 µM
IC50 (CYP2C9; [4]): > 50 µM

C=C(C)[C@H](CC=C(C)C)Cc1c(O)cc(O)c2c1O[C@H](c1ccc(O)cc1OC)CC2=O [Leachianone A]
IC50 (CYP1A2; [4]): > 50 µM
IC50 (CYP2C19): > 50 µM
IC50 (CYP2C8; [7]): 0.75 µM
IC50 (CYP2D6): > 50 µM
IC50 (CYP2B6; [7]): 5.74 µM
IC50 (CYP3A4 [1]): > 50 µM
IC50 (CYP2C9; [4]): > 50 µM

C=C(C)[C@H](CC=C(C)C)Cc1c(O)cc(O)c2c1O[C@H](c1ccc(O)cc1O)CC2=O [Sophoraflavone G]
IC50 (CYP1A2; [8]): 2.26 µM
IC50 (CYP2C8; [8]): 0.32 µM
IC50 (CYP2D6): > 50 µM
IC50 (CYP2B6; [8]): 2.42 µM
IC50 (CYP3A4 [1]): > 50 µM
IC50 (CYP2A6): > 50 µM
IC50 (CYP2C9; [8]): 1.25 µM
